The series concerns the target IRF4. Conditions: ASO.

Where “and” joins values, the source holds several entries; their conditions need not be identical. Equal entries are not always repeated. After the bases stand the sugars from the 5' end (letter, count) and the backbone: PS all phosphorothioate, else s phosphorothioate and o phosphodiester by linkage. Methylation of C is not given here. e = 2'-O-(2-methoxyethyl) (MOE); k = constrained ethyl (cEt); d = 2'-deoxy (DNA)

As for CCTATCACTGCCAAGT (sugars k3 d10 k3, PS), the target mRNA inhibition (MM.1R, 1 µM) was -3%. With CACTATTAAGAACTTG (sugars k3 d10 k3, PS), the target mRNA inhibition (SK-MEL-28, 4 µM) came out at 33%.

For CAAATTCAGGAGAGCC (sugars k3 d10 k3, PS), the target mRNA inhibition (SK-MEL-28, 4 µM) worked out at 19%. On to “GTGTCTAAAGTCCCAT (sugars kkddddddddddkeke, PS)”, for which the target mRNA inhibition (MM.1R, 1 µM) is 9% and 6%.

For CCCCGTATCCCCGTAT (sugars k3 d10 k3, PS), the target mRNA inhibition (SK-MEL-28, 4 µM) was 45%. For the sequence CCTGTAGTATGAGAAA (sugars k3 d10 k3, PS), the target mRNA inhibition (SK-MEL-28, 4 µM) stood at 57%. As for GCTTACTGTGATTCTG (sugars k3 d10 k3, PS), the target mRNA inhibition (SK-MEL-28, 4 µM) was found to be 34%. On to CAAACTCCTCAGGGAA (sugars k4 d8 k4, PS), for which, for the setting “SK-MEL-28, 4 µM”, the target mRNA inhibition came out at 17%. CGCGGTTGTAGTCCTG (sugars k3 d10 k3, PS): the target mRNA inhibition (SK-MEL-28, 4 µM) was 44%.

Turning to GACTTAATTCTGGGTT (sugars k3 d10 k3, PS), the target mRNA inhibition (SK-MEL-28, 4 µM) was 35%. For GTTATCTATGGAAACC (sugars k3 d10 k3, PS), the target mRNA inhibition (SK-MEL-28, 4 µM) came out at 42%. As for “GTTGGCTGGTCTTTGT (sugars k2 d9 e3 k2, PS)”, under “MM.1R, 1 µM”, the target mRNA inhibition is 24%. In the case of CGTAGTCACGCAATGG (sugars k3 d10 k3, PS), the target mRNA inhibition (MM.1R, 1 µM) stood at 15%. GTAGAAGCCCACAAGA (sugars k3 d10 k3, PS): where the note is “SK-MEL-28, 4 µM”, the target mRNA inhibition is -4%.

Turning to GTATTAATATTCTGAC (sugars k3 d10 k3, PS), under “SK-MEL-28, 4 µM”, the target mRNA inhibition was determined as 63%. For GCTGTGTGTCAAAGAG (sugars k3 d10 k3, PS), the target mRNA inhibition (SK-MEL-28, 4 µM) was 6%. On the same count and under the same terms, as for GGTGGCTCAGCAGCTT (sugars k3 d10 k3, PS), the figure is 37%; as for TCCTAAATCACCCTGG (sugars k3 d10 k3, PS), 21%. As to CTTTACACAGTTCTAA (sugars k3 d10 k3, PS), the target mRNA inhibition (SK-MEL-28, 4 µM) is -13%.

Consider AAAACTACTATTGTGG (sugars k3 d10 k3, PS), for which, under “SK-MEL-28, 4 µM”, the target mRNA inhibition is 14%. Take “CGTGTGCTTGCCAAGC (sugars k2 d9 e3 k2, PS)”: where the note is “MM.1R, 1 µM”, the target mRNA inhibition is 60% and 66%. Turning to GAAAAGAGCCGCCACA (sugars k3 d10 k3, PS), the target mRNA inhibition (SK-MEL-28, 4 µM) is 7%.

For CTTAGGAACGAAGAGC (sugars k3 d10 k3, PS), the target mRNA inhibition (SK-MEL-28, 4 µM) amounted to 7%. Consider GACAGAGAGTCCGACG (sugars k3 d10 k3, PS), for which, where the note is “SK-MEL-28, 4 µM”, the target mRNA inhibition was -1%.

In the case of GGCGGAGCTTCCCGTT (sugars k3 d10 k3, PS), the target mRNA inhibition (SK-MEL-28, 4 µM) is 26%. Regarding GCGCCCAATCACCTTC (sugars k3 d10 k3, PS), the target mRNA inhibition (SK-MEL-28, 4 µM) stood at 3%. For “GTGATGTCAGGTTTTC (sugars kkdddddddddekeke, PS)”, the target mRNA inhibition reads like this: (MM.1R, 0.074 µM) 14%; (MM.1R, 0.222 µM) 16%; (MM.1R, 0.666 µM) 30%; (MM.1R, 1 µM) 58%; (MM.1R, 2 µM) 59%. As to CATATTCCAACAGGCG (sugars k3 d10 k3, PS), the target mRNA inhibition (MM.1R, 1 µM) was -1%. Take “AAGCTTGATAAAGGCT (sugars e1 k2 d9 k2 e2, PS)”: for the setting “MM.1R, 1 µM”, the target mRNA inhibition was -1%. Take AAGAAGCACTGGCATT (sugars k3 d10 k3, PS): the target mRNA inhibition (SK-MEL-28, 4 µM) was found to be 22%. In the case of “ACTTTTAGAGAGGAGA (sugars kkddddddddddkeke, PS)”, where the note is “MM.1R, 1 µM”, the target mRNA inhibition came to 23%. Consider TTCCATAGATCAACAT (sugars k3 d10 k3, PS), for which the target mRNA inhibition (SK-MEL-28, 4 µM) is 44%. Consider GCCAAGGAGGCGGGCC (sugars k3 d10 k3, PS), for which the target mRNA inhibition (MM.1R, 1 µM) is -2%. Regarding TGTAAGGGCTGCTCAT (sugars k3 d10 k3, PS), the target mRNA inhibition (SK-MEL-28, 4 µM) came out at 49%. For GAATTTCAGGAGCTAG (sugars k3 d10 k3, PS), the target mRNA inhibition (SK-MEL-28, 4 µM) was 61%. Regarding GTCATATGGCTAAACC (sugars k3 d10 k3, PS), the target mRNA inhibition (MM.1R, 1 µM) turned out to be 23%. In the case of “TTATGTTAGCCAATTC (sugars kkdddddddddkdkdk, PS)”, the target mRNA inhibition (MM.1R, 1 µM) is 17% and 26%. Take GGCGAGTTGGCACAAT (sugars k3 d10 k3, PS): the target mRNA inhibition is -13% (MM.1R, 0.0625 µM); 3% (MM.1R, 0.25 µM); 49% and 30% (MM.1R, 1 µM); 60% (MM.1R, 4 µM).

As for “TCTATAGTGTTCCAGG (sugars kkddddddddddkeke, PS)”, the target mRNA inhibition is 15% (MM.1R, 0.074 µM); 32% (MM.1R, 0.222 µM); 58% (MM.1R, 0.666 µM); 66% (MM.1R, 1 µM); 83% (MM.1R, 2 µM). Consider CTAAAGTCCCATCGAA (sugars k3 d10 k3, PS), for which, for the setting “MM.1R, 1 µM”, the target mRNA inhibition was -2%. Consider GGTAAAGGAGTGCAGG (sugars k3 d10 k3, PS), for which the target mRNA inhibition (SK-MEL-28, 4 µM) stood at 46%.

The record behind these values is the OligoGym collection.
